From patent US20090048214A1, “Methods for Treating Renal Tumors Using 2, 4-Pyrimidinediamine Drug and Prodrug Compounds” (RIGEL PHARMACEUTICALS, INC, priority 2006, published 2009)

Experiments:
OVCAR-5 = settings: OVCAR-5, Ovarian Cancer; besylate salt
ACHN [1] = settings: Renal Cancer, besylate salt
COLO 205 = assay: cells; settings: Homo sapiens
K-562 = assay: cells; settings: Homo sapiens
SK-MEL-5 = settings: SK-MEL-5, Melanoma; besylate salt
HL-60(TB) = settings: Leukemia, besylate salt
NCI-H522 = assay: cells; settings: Homo sapiens, NCI-H522, read-out: LC50
NCI-H460 [2] = assay: cells; settings: Homo sapiens, NCI-H460, read-out: LC50
RPM1-8226 [3] = assay: cells; settings: Homo sapiens
SK-OV-3 = settings: SK-OV-3, Ovarian Cancer; besylate salt
NCI-H322M = assay: cells; settings: Homo sapiens
MALME-3M [4] = settings: Melanoma, besylate salt
OVCAR-4 [5] = assay: cells; settings: Homo sapiens
IGROV1 = settings: IGROV1, Ovarian Cancer; besylate salt
OVCAR-4 [6] = settings: OVCAR-4, Ovarian Cancer; besylate salt
NCI/ADR-RES = assay: cells; settings: Homo sapiens
SN12C = settings: Renal Cancer, besylate salt
SK-MEL-28 = assay: cells; settings: Homo sapiens
U251 = settings: U251, CNS Cancer; besylate salt
RPM1-8226 [7] = settings: RPM1-8226, Leukemia; besylate salt
CAKI-1 = assay: cells; settings: Homo sapiens
PC-3 [8] = assay: cells; settings: Homo sapiens
DU-145 = settings: DU-145, Prostate Cancer; besylate salt
UO-31 = settings: UO-31, Renal Cancer; besylate salt
PC-3 [9] = settings: PC-3, Prostate Cancer; besylate salt
HCT-116 = assay: cells; settings: Homo sapiens, HCT-116, read-out: LC50
ACHN [10] = assay: cells; settings: Homo sapiens
SF-268 = assay: cells; settings: Homo sapiens
NCI-H460 [11] = settings: NCI-H460, Non-Small Cell Lung Cancer; besylate salt
SR = assay: cells; settings: Homo sapiens
HCT-15 = settings: HCT-15, Colon Cancer; besylate salt
MALME-3M [12] = assay: cells; settings: Homo sapiens
T-47D = assay: cells; settings: Homo sapiens, T47D, read-out: LC50
SW-620 = settings: SW-620, Colon Cancer; besylate salt
MOLT-4 = assay: cells; settings: Homo sapiens
MDA-MB-231/ATCC = assay: cells; settings: Homo sapiens, MDA-MB-231, read-out: LC50

COc1cc(Nc2ncc(F)c(Nc3ccc4c(n3)NC(=O)C(C)(C)O4)n2)cc(OC)c1OC [Compound 1]
TGI (OVCAR-5): >1.00E−4
TGI (ACHN [1]): >1.00E−4
IC50 (COLO 205; COLO 205, read-out: G150): 7.26 µM
CC50 (COLO 205; COLO 205, read-out: LC50): > 100 µM
IC50 (K-562; K562, read-out: G150): > 100 µM
CC50 (K-562; K562, read-out: LC50): > 100 µM
TGI (SK-MEL-5): >1.00E−4
TGI (HL-60(TB)): >1.00E−4
CC50 (NCI-H522): > 100 µM
CC50 (NCI-H460 [2]): > 100 µM
IC50 (RPM1-8226 [3]; read-out: G150): > 100 µM
CC50 (RPM1-8226 [3]; read-out: LC50): > 100 µM
TGI (SK-OV-3): >1.00E−4
IC50 (NCI-H322M; read-out: G150): > 100 µM
CC50 (NCI-H322M; read-out: LC50): > 100 µM
TGI (MALME-3M [4]): >1.00E−4
IC50 (OVCAR-4 [5]; OVCAR-4, read-out: G150): > 100 µM
CC50 (OVCAR-4 [5]; OVCAR-4, read-out: LC50): > 100 µM
TGI (IGROV1): >1.00E−4
TGI (OVCAR-4 [6]): >1.00E−4
IC50 (NCI/ADR-RES; read-out: G150): > 100 µM
CC50 (NCI/ADR-RES; read-out: LC50): > 100 µM
TGI (SN12C): >1.00E−4
IC50 (SK-MEL-28; SK-MEL-28, read-out: G150): > 100 µM
CC50 (SK-MEL-28; SK-MEL-28, read-out: LC50): > 100 µM
TGI (U251): >1.00E−4
TGI (RPM1-8226 [7]): >1.00E−4
IC50 (CAKI-1; CAKI-1, read-out: G150): 0.0515 µM
CC50 (CAKI-1; CAKI-1, read-out: LC50): > 100 µM
IC50 (PC-3 [8]; PC-3, read-out: G150): 3.07 µM
CC50 (PC-3 [8]; PC-3, read-out: LC50): > 100 µM
TGI (DU-145): >1.00E−4
TGI (UO-31): >1.00E−4
TGI (PC-3 [9]): >1.00E−4
CC50 (HCT-116): > 100 µM
IC50 (ACHN [10]; read-out: G150): 1.24 µM
CC50 (ACHN [10]; read-out: LC50): > 100 µM
IC50 (SF-268; SF-268, read-out: G150): 1.7 µM
CC50 (SF-268; SF-268, read-out: LC50): > 100 µM
TGI (NCI-H460 [11]): >1.00E−4
IC50 (SR; read-out: G150): 3.56 µM
CC50 (SR; read-out: LC50): > 100 µM
TGI (HCT-15): >1.00E−4
IC50 (MALME-3M [12]; read-out: G150): > 100 µM
CC50 (MALME-3M [12]; read-out: LC50): > 100 µM
CC50 (T-47D): > 100 µM
TGI (SW-620): >1.00E−4
IC50 (MOLT-4; MOLT-4, read-out: G150): 4.82 µM
CC50 (MOLT-4; MOLT-4, read-out: LC50): > 100 µM
CC50 (MDA-MB-231/ATCC): > 100 µM
